Assay [1] has as its system Aureobasidium pullulan (Ap). The assay can be described thus: Minimum inhibitory concentration (MIC) in malt yeast agar. The assay is classed as cell-based, Aureobasidium pullulan ATCC 16622. The following applies: read-out: Minimum Inhibitory Concentration, Ap. As to the method:
(§1) The minimum inhibitory concentration (MIC) for the compounds listed in Table I is determined for 9 bacteria, using nutrient agar: and 7 yeast and fungi, using malt yeast agar. A one percent solution of the test compound is prepared in a mixture of acetone and water. Nutrient agar is prepared at pH 6.8, representing a neutral medium, and at pH 8.2, representing an alkaline medium. The nutrient agars are prepared by adding 23 g of nutrient agar to one-liter of deionized water. In addition, the alkaline medium is prepared by adjusting a 0.04M solution of N-[tris-(hydroxymethyl)methyl]-glycine buffered deionized water with concentrated sodium hydroxide to a pH of […]. Malt yeast agar is prepared by adding 3 g yeast extract and 45 g malt agar per liter of deionized water. The specific agar is dispensed in 30 ml aliquots into 25×200 mm test tubes, capped and autoclaved for 15 minutes at 115° C. The test tubes containing the agar are cooled in a water bath until the temperature of the agar is 48° C. Then, an appropriate amount of the one percent solution of the test compound is added (except in the controls where no compound is added) to the respective test tubes so that the final concentrations are 500, 250, 100, 50, 25, 10, 5, 2.5, 1.0 and zero parts per million of the test compound in the agar, thus having a known concentration of test compound dispersed therein. The contents of the test tubes are then transferred to respective petri plates. After drying for 24 hours, the petri plates containing nutrient agar are inoculated with bacteria and those containing malt yeast agar are inoculated with yeast and fungi.
(§2) The inoculation with the yeast and fungi is accomplished as follows. Cultures of yeast and fungi are incubated for seven days on malt yeast agar at 30° C. These cultures are used to prepare suspensions by the following procedure. A suspension of each organism is prepared by adding 10 ml of sterile saline and 10 microliters of octylphenoxy polyethoxy ethanol to the agar slant of yeast or fungi. The sterile saline/octylphenoxy polyethoxy ethanol solution is then agitated with a sterile swab to suspend the microorganism grown on the slant. Each resulting suspension is diluted into sterile saline (1 part suspension: 9 parts sterile saline). Aliquots of these dilutions are placed in individual wells of Steer's Replicator and petri plates inoculated as previously described. The petri plates are incubated at 30° C. and read after 48 hours for yeast and 72 hours for fungi.
(§3) Table II lists the bacteria, yeast and fungi used in the MIC test described above along with their respective American Type Culture Collection (ATCC) identification numbers.

For assay [2], the system named is Penicillium chrysogenum (Pc). Described as above. The assay is classed as cell-based, Penicillium chrysogenum ATCC 9480. The conditions noted are these: malt yeast agar; 30° C.; 72 hours for fungi; read-out: Minimum Inhibitory Concentration, Pc. As to the method: as §1, §2, §3
For assay [3], the system named is Pseudomonas aeruginosa (Pa). The assay can be described thus: Minimum inhibitory concentration (MIC) in nutrient agar. In kind it is cell-based, Pseudomonas aeruginosa ATCC 10145. The conditions noted are these: 48 hours. Here is the method: as §1
(§4) The inoculation with bacteria is accomplished by using the following procedure. Twenty-four hour-cultures of each of the bacteria are prepared by incubating the respective bacteria in tubes containing nutrient broth for 24 hours at 30° C. in a shaker. Dilutions of each of the 24 hour-cultures are made so that nine separate suspensions (one for each of the nine test bacteria) are made, each containing 10^8 colony forming units (CFU) per ml of suspension of a particular bacteria. Aliquots of 0.3 ml of each of the bacterial suspensions are used to fill the individual wells of Steer's Replicator. For each microbial suspension, 0.3 ml was used to fill three wells (i.e., three wells of 0.3 ml each) so that for the nine different bacteria, 27 wells are filled. The Steer's Replicator is then used to inoculate both the neutral and alkaline pH nutrient agar petri plates.
(§5) The inoculated petri plates are incubated at 30° C. for 48 hours and then read to determine if the test compound which is incorporated into the agar prevented growth of the respective bacteria.
as §3

Assay [4] relates to Proteus vulgaris (Pv). Described as above. In kind it is cell-based, Proteus vulgaris ATCC 881. The following applies: 48 h. As to the method:
as §1, §4, §5, §3

The subject of assay [5] is Escherichia coli (Ec). The description is as above. In kind it is cell-based, Escherichia coli ATCC 11229. The following applies: 48 h. As to the method: as §1, §4, §5, §3
Assay [6] has as its system Candida albicans (Ca). The assay can be described thus: Minimum inhibitory concentration (MIC) in malt yeast agar. In kind it is cell-based, Candida albicans ATCC 10231. The conditions noted are these: malt yeast agar; 30° C.; 48 hours for yeast; read-out: Minimum Inhibitory Concentration, Ca. As to the method: as §1, §2, §3
Assay [7] deals with Pseudomonas aeruginosa (PRD-10). The assay can be described thus: Minimum inhibitory concentration (MIC) in nutrient agar. The assay is classed as cell-based, Pseudomonas aeruginosa ATCC 15442. The conditions noted are these: 48 h. As to the method: as §1, §4, §5, §3
Assay [8] concerns Staphylococcus aureus (Sa). The description is as above. In kind it is cell-based, Staphylococcus aureus ATCC 6538. Here is the method:
as §1, §4, §5, §3

Assay [9] deals with Trichoderma viride (Tv). The assay can be described thus: Minimum inhibitory concentration (MIC) in malt yeast agar. In kind it is cell-based, Trichoderma viride ATCC 8678. The following applies: malt yeast agar; 30° C.; 72 hours for fungi; read-out: Minimum Inhibitory Concentration, Tv. Here is the method:
as §1, §2, §3

In assay [10] the test system is Saccharomyces cerevisiae (Sc). The assay is described as above. In kind it is cell-based, Saccharomyces cerevisiae ATCC 4105. The following applies: malt yeast agar, 30° C., 48 hours for yeast, read-out: Minimum Inhibitory Concentration, Sc. As to the method:
as §1, §2, §3

The subject of assay [11] is Klebsiella pneumoniae (Kp). The assay is described as follows: Minimum inhibitory concentration (MIC) in nutrient agar. The assay is classed as cell-based, Klebsiella pneumoniae ATCC 8308. Here is the method: as §1, §4, §5, §3
The subject of assay [12] is Salmonella choleraesuis (Sc). The assay is described as above. The assay is classed as cell-based, Salmonella choleraesuis ATCC 10708. The following applies: Salmonella enterica, 48 h. As to the method:
as §1, §4, §5, §3

Assay [13] has as its system Enterobacter aerogenes (Ea). The description is as above. The conditions noted are these: Klebsiella aerogenes, 48 h. In kind it is cell-based, Enterobacter aerogenes ATCC 13048. Here is the method:
as §1, §4, §5, §3

Assay [14] concerns Fusarium oxysporum (Fo). The assay can be described thus: Minimum inhibitory concentration (MIC) in malt yeast agar. The assay is classed as cell-based, Fusarium oxysporum ATCC 48112. The following applies: malt yeast agar; 30° C.; 72 hours for fungi; read-out: Minimum Inhibitory Concentration, Fo. Here is the method: as §1, §2, §3
The subject of assay [15] is Bacillus subtilis (Bs). The assay is described as follows: Minimum inhibitory concentration (MIC) in nutrient agar. In kind it is cell-based, Bacillus subtilis ATCC 8473. Here is the method: as §1, §4, §5, §3
[16] abbreviates: pH 6.8, read-out: Minimum Inhibitory Concentration, Pv.
[17] abbreviates: pH 8.2, read-out: Minimum Inhibitory Concentration, Pv.
[18] abbreviates: pH 6.8, read-out: Minimum Inhibitory Concentration, Ec.
Where [19] appears, read: pH 8.2, read-out: Minimum Inhibitory Concentration, Ec.
Where [20] appears, read: pH 6.8, read-out: Minimum Inhibitory Concentration, PRD.
The mark [21] stands for this setting: pH 8.2, read-out: Minimum Inhibitory Concentration, PRD.
The mark [22] stands for this setting: 48 h, pH 8.2, read-out: Minimum Inhibitory Concentration, Sa.
Where [23] appears, read: 48 h, pH 8.2, read-out: Minimum Inhibitory Concentration, Kp.
Where [24] appears, read: pH 6.8, nutrient agar, 30° C., 48 hours, read-out: Minimum Inhibitory Concentration, Kp.
[25] abbreviates: pH 6.8, read-out: Minimum Inhibitory Concentration, Sc.
The mark [26] stands for this setting: pH 8.2, read-out: Minimum Inhibitory Concentration, Sc.
The mark [27] stands for this setting: pH 6.8, read-out: Minimum Inhibitory Concentration, Ea.
Setting [28] is: pH 8.2, read-out: Minimum Inhibitory Concentration, Ea.
Where [29] appears, read: 48 h, pH 8.2, read-out: Minimum Inhibitory Concentration, Bs.

Drawing on patent publication US5200409A, “Composition and use of substituted 1,3-dithiolo-and 1,4-dithiinoquinoxalines as an antimicrobial” (The Dow Chemical Company, priority 1992, dated 1993), this text covers MIC for two compounds.

Converted amounts (≈) assume the structure as drawn. Like-named read-outs stand apart in the source and are kept apart here.

With `N#CC(C#N)=C1Sc2nc3ccc(C(F)(F)F)cc3nc2S1` [T, 6-trifluoromethyl-1,3-dithiolo-(4,5-b)-quinoxaline-2-ylidene-propanedinitrile], the MIC in assay [1] was 250 µg/mL (≈ 743 µM); in assay [2] it was 250 µg/mL (≈ 743 µM); in assay [3] (pH 6.8, 30° C.) it was greater than 500 µg/mL; in assay [3] (pH 8.2, 30° C.), greater than 500 µg/mL; in assay [4] (setting [16]) it was greater than 500 µg/mL; in assay [4] (setting [17]) it was greater than 500 µg/mL. Further, the MIC in assay [5] (setting [18]), in [5] (setting [19]), in assay [6], in assay [7] (setting [20]), in assay [7] (setting [21]) and in [8] (setting [22]) was greater than 500 µg/mL each time. In addition, the MIC was greater than 500 µg/mL in assay [8] (pH 6.8, nutrient agar, 30° C., 48 hours, read-out: Minimum Inhibitory Concentration, Sa); greater than 500 µg/mL in assay [9]; greater than 500 µg/mL in [10]; greater than 500 µg/mL in assay [11] (setting [23]); greater than 500 µg/mL in [11] (setting [24]); greater than 500 µg/mL in assay [12] (setting [25]). The MIC is greater than 500 µg/mL in [12] (setting [26]); greater than 500 µg/mL in [13] (setting [27]); greater than 500 µg/mL in [13] (setting [28]); greater than 500 µg/mL in [14]; greater than 500 µg/mL in assay [15] (48 h, pH 6.8, read-out: Minimum Inhibitory Concentration, Bs); greater than 500 µg/mL in assay [15] (setting [29]).

Regarding `N#CC1=C(C#N)Sc2nc3cc(C(=O)c4ccccc4)ccc3nc2S1` [V, 7-benzoyl-1,4-dithiino-(2,3-b)-quinoxaline-2,3-dicarbonitrile], the MIC in assay [1] was 250 µg/mL (≈ 671 µM); in assay [2], 250 µg/mL (≈ 671 µM); in [3] (pH 6.8, 30° C.), greater than 500 µg/mL; in assay [3] (pH 8.2, 30° C.), greater than 500 µg/mL; in [4] (setting [16]) it was greater than 500 µg/mL; in assay [4] (setting [17]), greater than 500 µg/mL. Further, the MIC in assay [5] (setting [18]) was greater than 500 µg/mL; in [5] (setting [19]), greater than 500 µg/mL; in assay [6] it was 500 µg/mL (≈ 1340 µM); in assay [7] (setting [20]) it was greater than 500 µg/mL; in assay [7] (setting [21]), greater than 500 µg/mL; in [8] (48 h, pH 6.8, read-out: Minimum Inhibitory Concentration, Sa), 50 µg/mL (≈ 134 µM). In addition, the MIC was greater than 500 µg/mL in [8] (setting [22]); 500 µg/mL (≈ 1340 µM) in assay [9]; 500 µg/mL (≈ 1340 µM) in assay [10]; greater than 500 µg/mL in assay [11] (setting [23]); greater than 500 µg/mL in assay [11] (setting [24]); greater than 500 µg/mL in assay [12] (setting [25]). Also, the MIC is greater than 500 µg/mL in assay [12] (setting [26]); greater than 500 µg/mL in assay [13] (setting [27]); greater than 500 µg/mL in assay [13] (setting [28]); 500 µg/mL (≈ 1340 µM) in assay [14]; greater than 500 µg/mL in [15] (setting [29]); 50 µg/mL (≈ 134 µM) in [15] (pH 6.8, nutrient agar, 30° C., 48 hours, read-out: Minimum Inhibitory Concentration, Bs).
